Our source for the T/C values is PubChem BioAssay AID256 (DTP/NCI, 2004).

Several values for one entry are separate records, joined by “and”; a condition that tells them apart may be missing. Equal values may be shown once. Inconclusive results and toxic doses are left out.

The subject of the experiment is CD2F1 mice, L1210 leukemia ip, survival T/C. The experiment can be described thus: NCI In Vivo Anticancer Drug Screen. Data for tumor model L1210 Leukemia (intraperitoneal) in CD2F1 (CDF1) mice. To be noted: higher = longer survival. A digest of the protocol:
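Mice carrying a transplanted tumor received test compound or vehicle alone. The value is the measurement in the treated group divided by that in the vehicle-treated control group.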

[1] abbreviates: endpoint: mean survival time, dose: 100.0 mg/kg/injection, schedule: Q01DX009 (ip), vehicle: saline with Tween-80.
The mark [2] stands for this setting: endpoint: mean survival time, dose: 100.0 mg/kg/injection, schedule: Q04DX003 (ip), vehicle: saline with Tween-80.
Where [3] appears, read: endpoint: mean survival time, dose: 200.0 mg/kg/injection, schedule: Q01DX009 (ip), vehicle: saline with Tween-80.
The mark [4] stands for this setting: endpoint: mean survival time, dose: 200.0 mg/kg/injection, schedule: Q04DX003 (ip), vehicle: saline with Tween-80.
[5] abbreviates: endpoint: mean survival time, dose: 400.0 mg/kg/injection, schedule: Q04DX003 (ip), vehicle: saline with Tween-80.
[6] abbreviates: endpoint: mean survival time, dose: 100.0 mg/kg/injection, schedule: Q04DX002 (ip), vehicle: saline with Tween-80.
Setting [7] is: endpoint: mean survival time, dose: 200.0 mg/kg/injection, schedule: Q04DX002 (ip), vehicle: saline with Tween-80.
Where [8] appears, read: endpoint: mean survival time, dose: 400.0 mg/kg/injection, schedule: Q04DX002 (ip), vehicle: saline with Tween-80.

In the case of `NC(N)=N/C(N)=N\c1cnc([N+](=O)[O-])s1`, the T/C by setting is: (endpoint: mean survival time, dose: 75.0 mg/kg/injection, schedule: Q01DX001 (ip), vehicle: saline) 96 % of control; (endpoint: mean survival time, dose: 150.0 mg/kg/injection, schedule: Q01DX001 (ip), vehicle: saline) 101 % of control; (endpoint: mean survival time, dose: 300.0 mg/kg/injection, schedule: Q01DX001 (ip), vehicle: saline) 93 % of control.
Regarding `COc1ccc(CCNC(=O)/C=C\C(=O)O)cc1OC`, the T/C is 106 % of control under setting [1]; 89 % of control under setting [2]; 103 % of control under setting [3]; 103 % of control under setting [4]; 101 % of control (endpoint: mean survival time, dose: 400.0 mg/kg/injection, schedule: Q01DX009 (ip), vehicle: saline with Tween-80); 106 % of control under setting [5].
For `NC(=O)/C=C/C(=O)c1c(Cl)cccc1Cl`, the T/C is 98 % of control (endpoint: mean survival time, dose: 0.78 mg/kg/injection, schedule: Q01DX009 (ip), vehicle: saline with Tween-80); 97 % of control (endpoint: mean survival time, dose: 0.79 mg/kg/injection, schedule: Q01DX009 (ip), vehicle: saline with Tween-80); 95 % of control and 97 % of control (endpoint: mean survival time, dose: 1.56 mg/kg/injection, schedule: Q01DX009 (ip), vehicle: saline with Tween-80); 91 % of control and 104 % of control (endpoint: mean survival time, dose: 3.12 mg/kg/injection, schedule: Q01DX009 (ip), vehicle: saline with Tween-80); 97 % of control and 101 % of control (endpoint: mean survival time, dose: 6.25 mg/kg/injection, schedule: Q01DX009 (ip), vehicle: saline with Tween-80); 98 % of control and 100 % of control (endpoint: mean survival time, dose: 12.5 mg/kg/injection, schedule: Q01DX009 (ip), vehicle: saline with Tween-80).
On to `O=C(O)CCc1cc([N+](=O)[O-])c(O)c([N+](=O)[O-])c1`, for which the T/C by setting is: under setting [1], 94 % of control; under setting [3], 89 % of control.
For the compound `CC(=O)O.CC(=O)O.CC(=O)O.CC(=O)O.[Rh].[Rh]`, the T/C runs as follows: (endpoint: mean survival time, dose: 6.25 mg/kg/injection, schedule: Q01DX009 (ip), vehicle: saline) 110 % of control; (endpoint: mean survival time, dose: 12.5 mg/kg/injection, schedule: Q01DX009 (ip), vehicle: saline) 116 % of control; (endpoint: mean survival time, dose: 25.0 mg/kg/injection, schedule: Q01DX009 (ip), vehicle: saline) 100 % of control.
For the compound `Cc1c2ccccc2cc2c1ccc1ccccc12`, the T/C by setting is: (endpoint: mean survival time, dose: 9.0 mg/kg/injection, schedule: Q01DX009 (ip), vehicle: saline with Tween-80) 106 % of control; (endpoint: mean survival time, dose: 17.5 mg/kg/injection, schedule: Q01DX009 (ip), vehicle: saline with Tween-80) 108 % of control; (endpoint: mean survival time, dose: 35.0 mg/kg/injection, schedule: Q01DX009 (ip), vehicle: saline with Tween-80) 108 % of control; (endpoint: mean survival time, dose: 70.0 mg/kg/injection, schedule: Q01DX009 (ip), vehicle: saline with Tween-80) 103 % of control.
In the case of `CN1C(=O)c2ccccc2C1(/N=C/c1ccccc1)c1ccccc1` (configuration not stated), the T/C was 96 % of control under setting [2], 96 % of control under setting [4] and 96 % of control under setting [5].
For `CN(C)c1ccc(N=Nc2cccc(C(=O)[O-])c2)cc1.CN(C)c1ccc(N=Nc2cccc(C(=O)[O-])c2)cc1.NC1CCCCC1N.[Pt+4]`, the T/C runs as follows: (endpoint: median survival time, dose: 3.12 mg/kg/injection, schedule: Q04DX003 (ip), vehicle: saline with Tween-80) 116 % of control and 98 % of control; (endpoint: median survival time, dose: 6.25 mg/kg/injection, schedule: Q04DX003 (ip), vehicle: saline with Tween-80) 115 % of control and 109 % of control; (endpoint: median survival time, dose: 12.5 mg/kg/injection, schedule: Q04DX003 (ip), vehicle: saline with Tween-80) 101 % of control; (endpoint: median survival time, dose: 100.0 mg/kg/injection, schedule: Q04DX003 (ip), vehicle: saline with Tween-80) 375 % of control; (endpoint: median survival time, dose: 200.0 mg/kg/injection, schedule: Q04DX003 (ip), vehicle: saline with Tween-80) 104 % of control.
Consider `NC(=S)CNC(=O)c1ccccc1`, for which the T/C is 100 % of control and 101 % of control under setting [2]; 101 % of control and 106 % of control under setting [4]; 99 % of control and 111 % of control under setting [5].
As to `Cc1cc(=O)c(Cl)cc(=O)[nH]1`, the T/C reads like this: (endpoint: mean survival time, dose: 12.5 mg/kg/injection, schedule: Q01DX001 (ip), vehicle: saline with Tween-80) 95 % of control; (endpoint: mean survival time, dose: 25.0 mg/kg/injection, schedule: Q01DX001 (ip), vehicle: saline with Tween-80) 95 % of control.
For `CC(C)(COCc1ccccc1)COP(N)(=O)N(CCCl)CCCl` (configuration not stated), the T/C reads like this: (endpoint: mean survival time, dose: 25.0 mg/kg/injection, schedule: Q01DX001 (ip), vehicle: other) 102 % of control; (endpoint: mean survival time, dose: 50.0 mg/kg/injection, schedule: Q01DX001 (ip), vehicle: other) 93 % of control; (endpoint: mean survival time, dose: 100.0 mg/kg/injection, schedule: Q01DX001 (ip), vehicle: other) 87 % of control; (endpoint: mean survival time, dose: 200.0 mg/kg/injection, schedule: Q01DX001 (ip), vehicle: other) 96 % of control; (endpoint: mean survival time, dose: 400.0 mg/kg/injection, schedule: Q01DX001 (ip), vehicle: other) 98 % of control.
As for `S=C(Nc1ccccn1)c1ccccn1`, the T/C is, setting by setting: under setting [6], 111 % of control; under setting [2], 100 % of control; under setting [7], 95 % of control; under setting [4], 94 % of control; under setting [8], 103 % of control; under setting [5], 103 % of control.
Take `COc1ccc(C(=O)NNC(=O)c2ccc(OC)c(OC)c2)cc1OC`: the T/C runs as follows: (endpoint: mean survival time, dose: 12.5 mg/kg/injection, schedule: Q01DX009 (ip), vehicle: other) 92 % of control; (endpoint: mean survival time, dose: 25.0 mg/kg/injection, schedule: Q01DX009 (ip), vehicle: other) 93 % of control; (endpoint: mean survival time, dose: 50.0 mg/kg/injection, schedule: Q01DX009 (ip), vehicle: other) 92 % of control; (endpoint: mean survival time, dose: 100.0 mg/kg/injection, schedule: Q01DX009 (ip), vehicle: other) 108 % of control; (endpoint: mean survival time, dose: 200.0 mg/kg/injection, schedule: Q01DX009 (ip), vehicle: other) 107 % of control.
For the compound `OC[C@@H]1CCCN2CCCC[C@H]12`, the T/C reads like this: (endpoint: mean survival time, dose: 25.0 mg/kg/injection, schedule: Q04DX003 (ip), vehicle: saline) 100 % of control; (endpoint: mean survival time, dose: 50.0 mg/kg/injection, schedule: Q04DX003 (ip), vehicle: saline) 107 % of control; (endpoint: mean survival time, dose: 100.0 mg/kg/injection, schedule: Q04DX003 (ip), vehicle: saline) 105 % of control.
In the case of `CCCCCCCCCCCC(=O)NC(=S)Nc1cc(Cl)ccc1Cl`, the T/C (endpoint: mean survival time, dose: 50.0 mg/kg/injection, schedule: Q01DX001 (ip), vehicle: saline with Tween-80) is 89 % of control; the T/C (endpoint: mean survival time, dose: 50.0 mg/kg/injection, schedule: Q04DX003 (ip), vehicle: saline with Tween-80) was 92 % of control; the T/C (endpoint: mean survival time, dose: 100.0 mg/kg/injection, schedule: Q01DX001 (ip), vehicle: saline with Tween-80) is 89 % of control; the T/C under setting [1] is 86 % of control and 94 % of control; the T/C under setting [6] is 98 % of control; the T/C under setting [2] was 92 % of control. Besides, the T/C (endpoint: mean survival time, dose: 200.0 mg/kg/injection, schedule: Q01DX001 (ip), vehicle: saline with Tween-80) was 92 % of control; the T/C under setting [3] is 86 % of control and 92 % of control; the T/C under setting [7] is 98 % of control; the T/C under setting [8] is 98 % of control; the T/C under setting [5] is 86 % of control.
On to `SCCS`, for which the T/C (endpoint: mean survival time, dose: 50.0 mg/kg/injection, schedule: Q01DX009 (ip), vehicle: saline with Tween-80) was 105 % of control; the T/C under setting [1] was 105 % of control; the T/C under setting [3] is 94 % of control; the T/C under setting [7] is 91 % of control.
Turning to `Cc1nc2n[nH]c(N)c2nc1C`, the T/C by setting is: (endpoint: mean survival time, dose: 100.0 mg/kg/injection, schedule: Q01DX009 (ip), vehicle: saline) 100 % of control; (endpoint: mean survival time, dose: 200.0 mg/kg/injection, schedule: Q01DX009 (ip), vehicle: saline) 106 % of control; (endpoint: mean survival time, dose: 400.0 mg/kg/injection, schedule: Q01DX009 (ip), vehicle: saline) 106 % of control.
As for `O=C1CCCC(c2ccccc2)c2ccccc21` (configuration not stated), the T/C (endpoint: mean survival time, dose: 100.0 mg/kg/injection, schedule: Q01DX001 (ip), vehicle: saline) is 97 % of control; the T/C (endpoint: mean survival time, dose: 200.0 mg/kg/injection, schedule: Q01DX001 (ip), vehicle: saline) is 97 % of control; the T/C (endpoint: mean survival time, dose: 400.0 mg/kg/injection, schedule: Q01DX001 (ip), vehicle: saline) is 97 % of control.
